5 molecules from US5106868A, “Epoxycyclohexenone amides with antibacterial activity” (Kyowa Hakko Kogyo Kabushiki Kaisha, priority 1990, dated 1992) can be followed below.

Values after ≈ are worked out from the molar mass of the structure shown.

The subject of data set [1] is MCF7 cells (ATCC HTB22). Nature of the data set: Anti-tumour activity, MCF7 cell growth inhibition (neutral red). The data set is classed as cell-based. To be noted: Homo sapiens, 72 hours, 37° C., absorptivity at 550 nm. As for the experimental part:
MCF7 cells (ATCC HTB22) was add to RPMI-1640 medium (commercial product of Gibco, U.S.A.) containing 10 % fetal calf serum, insulin (10 μg/ml) and estradiol (10^-8 M) (hereinafter referred to as medium A) to prepare a cell suspension containing 4.5×10^4 cell/ml.
On each occasion, 0.1 ml of the suspension was poured into each well of a 96 well microtitre plate and incubated at a temperature of 37° C. for 20 hours in a carbon dioxide incubator. Then a test compound (each 0.05 ml) was added to each well, followed by incubation similarly for 72 hours. After removal of the supernatant, another medium (0.1 ml) containing medium A and 0.02% neutral red was added to the material for incubating similarly for one hour to dye the cells. The supernatant was removed, and the residue was washed once with physiological Saline. Then the dyestuff was removed by using an aqueous solution of ethanol (30%) containing 0.001N hydrochloric acid.
The absorptivity at 550 nm of the material was measured by the use of a microplate reader. The absorptivity of the treated cells was compared with the absorptivity of untreated cells to measure the IC50 value viz. the concentration of the test compound required to inhibit the growth of the cells by 50%.

The subject of data set [2] is Enterococcus faecium ATCC 10541. Nature of the data set: Anti-bacterial activity, minimum inhibitory concentration by agar dilution method. To be noted: ATCC10541, pH=7.0. Type of data set: cell-based. As for the experimental part: (§1) Minimum inhibitory concentration (μg/ml) was measured by the agar dilution method using a medium (pH=7.0) which was prepared by dissolving Bactotryptone medium (3 g; commercial product of Difco, U.S.A.), meat extract (3 g), yeast extract (1 g), glucose (1 g) and agar (16 g) in water (1 l).

Data set [3] relates to Pseudomonas aeruginosa Bin H No. 1. The data set is described as above. Type of data set: cell-based. The conditions noted are these: pH=7.0. The protocol:
as §1

The test system of data set [4] is Salmonella typhi ATCC 9992. Described as above. Type of data set: cell-based. To be noted: Salmonella enterica, read-out: Minimum inhibitory concentration. As for the experimental part: as §1
For data set [5], the system named is Bacillus subtilis No. 10707. The data set is described as above. Type of data set: cell-based. The conditions noted are these: pH=7.0. The protocol:
as §1

Data set [6] has as its system Shigella sonnei ATCC 9290. Described as above. The data set is classed as cell-based. The conditions noted are these: ATCC9290, pH=7.0. The protocol:
as §1

Data set [7] has as its system Candida albicans ATCC 10231. The description is as above. Type of data set: cell-based. The conditions noted are these: ATCC10231, pH=7.0. As for the experimental part: as §1
The subject of data set [8] is Staphylococcus aureus ATCC 6538P. Described as above. Type of data set: cell-based. The conditions noted are these: ATCC6538P, pH=7.0. As for the experimental part:
as §1

The test system of data set [9] is Klebsiella pneumonia ATCC 10031. Described as above. The conditions noted are these: Klebsiella pneumoniae, ATCC10031, pH=7.0. Type of data set: cell-based. As for the experimental part: as §1
Data set [10] concerns Escherichia coli ATCC 26. The data set is described as above. The data set is classed as cell-based. To be noted: ATCC26, pH=7.0. The protocol: as §1
Data set [11] in a line: Solubility in various solvents. The data set is classed as physicochemical. The conditions noted are these: for Solubility in various solvents (soluble): organic solvents; for Solubility in various solvents (insoluble): water, n-hexane where named.

In data set [1], `CCCCC(C)/C=C(C)/C=C/C(=O)NC1=CC(O)(/C=C/C=C/C=C/C(=O)NC2=C(O)CCC2=O)C2OC2C1=O` (stereo not shown) [UCF1-B] showed an IC50 of 7.3 µg/mL (≈ 13.6 µM). The MIC in data set [2] is 10 µg/mL (≈ 18.6 µM); in data set [3], more than 100 µg/mL; in [4] it was more than 100 µg/mL; in data set [5], 1.3 µg/mL (≈ 2.42 µM); in [6], more than 100 µg/mL; in data set [7] it was more than 100 µg/mL. In addition, the values for the MIC in data set [8], in [9] and in data set [10] were 2.6 µg/mL (≈ 4.85 µM), more than 100 µg/mL and more than 100 µg/mL, respectively. Moreover, the “Solubility in various solvents (soluble)” value in [11] is “Soluble in chloroform, dimethylsulfoxide, ethyl acetate, methanol and acetone”. The “Solubility in various solvents (insoluble)” value (from here on “Solubility … (insoluble)”) in [11] is “Insoluble in n-hexane and water”.

`CCCCC(C)/C=C(\C)C(=O)NC1=CC(=O)C2OC2C1=O` (stereo not shown) [UCF1-AX] displayed a half-maximal inhibitory concentration (IC50) in data set [1] of 18.9 µg/mL (≈ 64.9 µM). The MIC in data set [2] came out at 10 µg/mL (≈ 34.3 µM); in data set [3] it was 83 µg/mL (≈ 285 µM); in data set [4] it was 21 µg/mL (≈ 72.1 µM); in data set [5], 1.3 µg/mL (≈ 4.46 µM); in data set [6], 10 µg/mL (≈ 34.3 µM); in data set [7], 10 µg/mL (≈ 34.3 µM). Besides, the MIC was determined as 10 µg/mL (≈ 34.3 µM) in [8], 21 µg/mL (≈ 72.1 µM) in data set [9] and 21 µg/mL (≈ 72.1 µM) in data set [10]. Moreover, the “Solubility in various solvents (soluble)” value in data set [11] is “Soluble in chloroform, methanol and diethyl ether”. Further, the “Solubility … (insoluble)” value in data set [11] is “Insoluble in water”.

As to `CCCCC(C)/C=C(C)/C=C(\C)C(=O)NC1=CC(O)(/C=C/C=C/C=C/C(=O)NC2=C(O)CCC2=O)C2OC2C1=O` (stereo not shown) [Manumycin, reference compound], the IC50 in data set [1] worked out at 8.3 µg/mL (≈ 15.1 µM). Moreover, the MIC in [2] is 2.6 µg/mL (≈ 4.72 µM); in [3], more than 100 µg/mL; in data set [4], more than 100 µg/mL; in data set [5] it was 0.3 µg/mL (≈ 0.545 µM); in data set [6], more than 100 µg/mL; in [7], 21 µg/mL (≈ 38.1 µM). The MIC was 1.3 µg/mL (≈ 2.36 µM) in data set [8], more than 100 µg/mL in [9] and more than 100 µg/mL in [10].

In turn, `CCCCC(C)/C=C(C)/C=C/C(=O)NC1=CC(=O)C2OC2C1=O` (stereo not shown) [UCF1-BX] came in with an IC50 in data set [1] of 7.5 µg/mL (≈ 23.6 µM). Moreover, the MIC in data set [2] was 0.65 µg/mL (≈ 2.05 µM); in data set [3], 83 µg/mL (≈ 262 µM); in data set [4] it was more than 100 µg/mL; in [5] it was 0.16 µg/mL (≈ 0.504 µM); in data set [6] it was more than 100 µg/mL; in [7] it was 42 µg/mL (≈ 132 µM). The results for the MIC in data set [8], in [9] and in data set [10] were 8.3 µg/mL (≈ 26.2 µM), more than 100 µg/mL and more than 100 µg/mL, respectively. Further, the “Solubility in various solvents (soluble)” value in [11] was “Soluble in chloroform, methanol and diethyl ether”. Also, in [11], the “Solubility … (insoluble)” value is reported as “Insoluble in water”.

In the case of `CCCCC(C)/C=C(\C)C(=O)NC1=CC(O)(/C=C/C=C/C=C/C(=O)NC2=C(O)CCC2=O)C2OC2C1=O` (stereo not shown) [UCF1-A], in [1], the IC50 was determined as 12.5 µg/mL (≈ 24.5 µM). In addition, the MIC in [2] is 10 µg/mL (≈ 19.6 µM); in data set [3] it was more than 100 µg/mL; in data set [4] it was more than 100 µg/mL; in [5] it was 10 µg/mL (≈ 19.6 µM); in data set [6] it was more than 100 µg/mL; in data set [7] it was more than 100 µg/mL. Further, the values for the MIC in [8], in [9] and in [10] were 2.6 µg/mL (≈ 5.09 µM), more than 100 µg/mL and more than 100 µg/mL, respectively. For the same molecule, the “Solubility in various solvents (soluble)” value in [11] is “Soluble in chloroform, dimethylsulfoxide, ethyl acetate, methanol and acetone”. Moreover, the “Solubility … (insoluble)” value in [11] is “Insoluble in n-hexane and water”.
